Test results published in article PMC9358681 (Biochemical pharmacology, 2022).
“And” between values parts separate entries of the source, which are not always exact repeats. Identical values can stand only once.

What was measured:
human A2BAR [1] = target: T1, human A2BAR (Homo sapiens, UniProt P29275); assay: [3H]PSB-603 displacement on CHO-spap-hA2BAR membranes; type: binding; conditions: […] [3H]PSB-603, 2 h, 25 °C; read-out: Ki (converted)
T1 construct: host or cells: CHO-spap
T1 sequence (P29275 1-332): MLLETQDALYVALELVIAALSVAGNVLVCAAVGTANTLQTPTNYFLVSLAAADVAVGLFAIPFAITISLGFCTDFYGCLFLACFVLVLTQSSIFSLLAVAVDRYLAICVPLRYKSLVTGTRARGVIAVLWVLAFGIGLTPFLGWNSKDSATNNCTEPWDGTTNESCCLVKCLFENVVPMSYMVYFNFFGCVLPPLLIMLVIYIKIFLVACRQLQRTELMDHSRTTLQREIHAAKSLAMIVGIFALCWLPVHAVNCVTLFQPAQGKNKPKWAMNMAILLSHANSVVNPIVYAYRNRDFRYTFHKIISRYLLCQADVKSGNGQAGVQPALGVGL

A2B adenosine receptor [2] = target: T2, A2B adenosine receptor (Rattus norvegicus, UniProt P29276); assay: Radioligand binding, rat A2B ([125I]I-ABOPX, HEK-293); conditions: rat (r), HEK-293, [125I]I-ABOPX
T2 sequence (P29276 1-332): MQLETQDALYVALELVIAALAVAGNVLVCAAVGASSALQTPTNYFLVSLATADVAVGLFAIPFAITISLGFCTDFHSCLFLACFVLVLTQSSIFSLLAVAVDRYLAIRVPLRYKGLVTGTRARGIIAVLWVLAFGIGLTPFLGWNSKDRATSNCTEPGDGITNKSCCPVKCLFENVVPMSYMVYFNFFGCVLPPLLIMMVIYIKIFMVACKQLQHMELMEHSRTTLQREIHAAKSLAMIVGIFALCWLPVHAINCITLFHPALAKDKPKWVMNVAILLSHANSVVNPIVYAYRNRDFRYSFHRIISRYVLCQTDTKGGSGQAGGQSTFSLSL

A1 adenosine receptor [3] = target: T3, A1 adenosine receptor (Rattus norvegicus, UniProt P25099); assay: Radioligand binding, rat A1 ([3H]R-PIA, HEK-293); conditions: HEK-293, [3H]R-PIA
T3 sequence (P25099 1-326): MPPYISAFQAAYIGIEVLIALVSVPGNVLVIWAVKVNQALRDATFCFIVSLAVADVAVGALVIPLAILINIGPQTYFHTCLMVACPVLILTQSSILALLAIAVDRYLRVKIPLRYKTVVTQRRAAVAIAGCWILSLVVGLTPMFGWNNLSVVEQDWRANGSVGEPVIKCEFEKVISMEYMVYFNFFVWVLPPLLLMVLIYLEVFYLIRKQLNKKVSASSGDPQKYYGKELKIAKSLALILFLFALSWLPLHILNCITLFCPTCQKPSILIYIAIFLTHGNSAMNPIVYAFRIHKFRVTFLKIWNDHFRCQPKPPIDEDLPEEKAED
Excerpt: (§1) The A2B receptor selectivity was generally low, especially at the rat A2B receptor.

A2A adenosine receptor [4] = target: A2A adenosine receptor (Rattus norvegicus, UniProt P30543); assay: Radioligand binding, rat A2A ([3H]CGS21680, HEK-293); conditions: rat (r), HEK-293, [3H]CGS21680
Chain of A2A adenosine receptor (Rattus norvegicus, UniProt P30543) (P30543 whole entry): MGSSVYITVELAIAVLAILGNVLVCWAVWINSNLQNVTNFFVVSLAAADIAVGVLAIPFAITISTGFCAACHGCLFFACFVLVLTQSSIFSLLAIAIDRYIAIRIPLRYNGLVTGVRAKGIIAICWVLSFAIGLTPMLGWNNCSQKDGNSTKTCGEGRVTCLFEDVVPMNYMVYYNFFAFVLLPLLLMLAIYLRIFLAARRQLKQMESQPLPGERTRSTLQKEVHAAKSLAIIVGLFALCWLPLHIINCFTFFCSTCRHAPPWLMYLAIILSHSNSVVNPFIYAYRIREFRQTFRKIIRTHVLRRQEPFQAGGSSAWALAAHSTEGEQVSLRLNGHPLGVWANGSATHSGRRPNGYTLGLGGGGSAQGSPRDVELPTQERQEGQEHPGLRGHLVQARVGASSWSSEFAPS

A1 adenosine receptor [5] = target: T4, A1 adenosine receptor (Homo sapiens, UniProt P30542); assay: Radioligand binding, human A1 ([3H]R-PIA, HEK-293); conditions: HEK-293, [3H]R-PIA
T4 sequence (P30542 1-326): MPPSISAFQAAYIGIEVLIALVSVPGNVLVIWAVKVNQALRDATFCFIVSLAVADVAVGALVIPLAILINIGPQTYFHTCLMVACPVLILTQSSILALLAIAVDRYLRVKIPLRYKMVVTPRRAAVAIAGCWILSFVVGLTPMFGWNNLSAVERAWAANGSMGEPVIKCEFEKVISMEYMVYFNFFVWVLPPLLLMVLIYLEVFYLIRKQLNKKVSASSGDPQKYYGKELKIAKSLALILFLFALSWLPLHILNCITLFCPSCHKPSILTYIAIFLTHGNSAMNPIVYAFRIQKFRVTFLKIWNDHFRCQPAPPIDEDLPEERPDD
Excerpt: as §1

human A2BAR [6] = target: T1, human A2BAR; assay: [3H]PSB-603 competition association assay; type: binding; conditions: for Kd: read-out: Kinetic KD (koff/kon); for koff: read-out: koff (converted); for kon: read-out: kon (converted); for RT: RT = 1/koff, competing ligand at 1.0-fold IC50, up to 3 hr, 25 °C
Protocol: In all radioligand binding experiments, CHO-spap-hA2BAR membranes were thawed and homogenized using an Ultra Turrax homogenizer at 24,000 rpm (IKA-Werke GmbH & Co.KG, Staufen, Germany), diluted in assay buffer to the desired concentration (10–30 μg per well or Eppendorf tube). All materials were brought to 25 °C, 30 min prior to the experiment. ZM241385 (10 μM) was used to determine nonspecific binding (NSB).
Addition of CHO-spap-hA2BAR membrane aliquots initiated the association. The amount of receptor-bound radioligand was determined at different time points up to 3 hr. After 3 hr the incubation was terminated and samples were obtained as described under “Displacement experiments”.
All competition association data were globally fitted.

A2A adenosine receptor [7] = target: A2A adenosine receptor (Homo sapiens, UniProt P29274); assay: Radioligand binding, human A2A ([3H]CGS21680, HEK-293); conditions: HEK-293, [3H]CGS21680
Chain of A2A adenosine receptor (Homo sapiens, UniProt P29274) (P29274 whole entry): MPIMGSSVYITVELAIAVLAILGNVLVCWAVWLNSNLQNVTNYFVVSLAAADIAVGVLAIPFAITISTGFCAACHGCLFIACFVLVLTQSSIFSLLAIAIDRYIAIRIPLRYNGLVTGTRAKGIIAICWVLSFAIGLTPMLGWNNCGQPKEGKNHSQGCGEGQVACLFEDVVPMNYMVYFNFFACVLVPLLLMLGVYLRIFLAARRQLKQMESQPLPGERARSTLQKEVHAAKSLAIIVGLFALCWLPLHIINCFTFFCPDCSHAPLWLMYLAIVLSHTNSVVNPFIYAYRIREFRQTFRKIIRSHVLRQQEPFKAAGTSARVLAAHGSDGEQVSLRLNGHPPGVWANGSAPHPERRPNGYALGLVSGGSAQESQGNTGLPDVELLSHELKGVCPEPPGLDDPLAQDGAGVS

A3 adenosine receptor = target: T5, A3 adenosine receptor (Homo sapiens, UniProt P0DMS8); assay: Radioligand binding, human A3 ([125I]I-AB-MECA, HEK-293); conditions: HEK-293, [125I]I-AB-MECA
T5 sequence (P0DMS8 1-318): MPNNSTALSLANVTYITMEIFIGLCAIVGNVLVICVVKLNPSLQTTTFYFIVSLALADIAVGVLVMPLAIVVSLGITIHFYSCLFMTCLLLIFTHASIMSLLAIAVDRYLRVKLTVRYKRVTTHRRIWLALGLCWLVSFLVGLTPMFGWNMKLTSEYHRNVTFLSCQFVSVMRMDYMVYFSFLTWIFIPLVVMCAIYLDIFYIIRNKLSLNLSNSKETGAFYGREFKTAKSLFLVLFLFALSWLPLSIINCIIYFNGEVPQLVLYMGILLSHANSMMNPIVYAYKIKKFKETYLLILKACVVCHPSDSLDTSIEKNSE
Excerpt: as §1

A2B adenosine receptor [8] = target: T6, A2B adenosine receptor (Homo sapiens, UniProt P29275); assay: Radioligand binding, human A2B ([125I]I-ABOPX, HEK-293); conditions: HEK-293, [125I]I-ABOPX
T6 sequence (P29275 1-332): T1 sequence (P29275 1-332)

CCCn1c(=O)c2[nH]c(-c3ccc(OCC(=O)NC4CCCC4)cc3)nc2n(CCC)c1=O [Compound 5, N-cyclopentyl-2-(4-(2,6-dioxo-1,3-dipropyl-2,3,6,7-tetrahydro-1H-purin-8-yl)phenoxy)acetamide]
Ki (human A2BAR [1]): 16700 nM
Ki (A2B adenosine receptor [2]): 26.3 nM
Ki (A1 adenosine receptor [3]): 13.9 ± 1.8 nM
Ki (A2A adenosine receptor [4]): 19.1 ± 5.1 nM

CCCn1c(=O)c2[nH]c(-c3ccc(OCC(=O)NC4CCCCC4)cc3)nc2n(CCC)c1=O [Compound 7, N-cyclohexyl-2-(4-(2,6-dioxo-1,3-dipropyl-2,3,6,7-tetrahydro-1H-purin-8-yl)phenoxy)acetamide]
Ki (human A2BAR [1]): 951 nM
Ki (A2B adenosine receptor [2]): 73.5 ± 25.8 nM
Ki (A1 adenosine receptor [3]): 23 ± 4.1 nM
Ki (A2A adenosine receptor [4]): 19.3 ± 6.7 nM

CCCn1c(=O)c2[nH]c(-c3ccc(OCC(=O)NCc4ccc(F)cc4)cc3)nc2n(CCC)c1=O [Compound 21, 2-(4-(2,6-dioxo-1,3-dipropyl-2,3,6,7-tetrahydro-1H-purin-8-yl)phenoxy)-N-(4-fluorobenzyl)acetamide]
Ki (A1 adenosine receptor [5]): 63.9 ± 16.5 nM
Kd (human A2BAR [6]): 3.8 ± 1.7 nM
koff (human A2BAR [6]): 0.0011 s⁻¹
kon (human A2BAR [6]): 283000 M⁻¹ s⁻¹
Ki (human A2BAR [1]): 3.6 nM
Ki (A2B adenosine receptor [2]): 20 nM
Ki (A2A adenosine receptor [7]): 33.6 ± 0.1 nM
Ki (A3 adenosine receptor): 89.9 ± 11.6 nM
Ki (A2B adenosine receptor [8]): 5.5 ± 1.2 nM
Ki (A1 adenosine receptor [3]): 6.55 nM
Ki (A2A adenosine receptor [4]): 251 nM

CCCn1c(=O)c2[nH]c(-c3ccc(OCC(=O)NCc4ccc(Br)cc4)cc3)nc2n(CCC)c1=O [Compound 22, N-(4-bromobenzyl)-2-(4-(2,6-dioxo-1,3-dipropyl-2,3,6,7-tetrahydro-1H-purin-8-yl)phenoxy)acetamide]
Ki (A1 adenosine receptor [5]): 586 ± 250 nM
Kd (human A2BAR [6]): 6.5 ± 3.6 nM
koff (human A2BAR [6]): 0.000717 s⁻¹
kon (human A2BAR [6]): 117000 M⁻¹ s⁻¹
Ki (human A2BAR [1]): 5.73 nM
Ki (A2A adenosine receptor [7]): 26.1 ± 0.4 nM
Ki (A3 adenosine receptor): 274 ± 56 nM
Ki (A2B adenosine receptor [8]): 6.8 ± 0.8 nM
Ki (A1 adenosine receptor [3]): 32.7 nM
Ki (A2A adenosine receptor [4]): 112 nM

CCCn1c(=O)c2[nH]c(-c3ccc(OCC(=O)NCc4ccccc4)cc3)nc2n(CCC)c1=O [Compound 19]
Ki (A1 adenosine receptor [5]): 54.7 ± 21.2 nM
Ki (A2A adenosine receptor [7]): 23.8 ± 5.7 nM
Ki (A1 adenosine receptor [3]): 5.02 nM
Ki (A2A adenosine receptor [4]): 25.9 nM

CCCn1c(=O)c2[nH]c(-c3ccc(OCC(=O)N[C@H](C)c4ccccc4)cc3)nc2n(CCC)c1=O [Compound 24, (R)-2-(4-(2,6-dioxo-1,3-dipropyl-2,3,6,7-tetrahydro-1H-purin-8-yl)phenoxy)-N-(1-phenylethyl)acetamide]
Ki (A1 adenosine receptor [5]): 27.3 ± 4.9 nM
RT (human A2BAR [6]): 6.1 ± 1.6 min
Kd (human A2BAR [6]): 7.5 ± 3.9 nM
koff (human A2BAR [6]): 0.00273 s⁻¹
kon (human A2BAR [6]): 367000 M⁻¹ s⁻¹
Ki (human A2BAR [1]): 15.2 nM
Ki (A2B adenosine receptor [2]): 21.1 nM
Ki (A2A adenosine receptor [7]): 64.4 ± 21.2 nM
Ki (A3 adenosine receptor): 63.9 ± 16.5 nM
Ki (A2B adenosine receptor [8]): 8.5 ± 1.1 nM
Ki (A1 adenosine receptor [3]): 5.23 nM
Ki (A2A adenosine receptor [4]): 375 nM

CCCn1c(=O)c2[nH]c(-c3ccc(OCC(=O)NCc4ccc(C)cc4)cc3)nc2n(CCC)c1=O [Compound 20, 2-(4-(2,6-dioxo-1,3-dipropyl-2,3,6,7-tetrahydro-1H-purin-8-yl)phenoxy)-N-(4-methylbenzyl)acetamide]
Ki (A1 adenosine receptor [5]): 212 ± 68 nM
RT (human A2BAR [6]): 22 ± 3.5 min
Kd (human A2BAR [6]): 12 ± 4.7 nM
koff (human A2BAR [6]): 0.000767 s⁻¹
kon (human A2BAR [6]): 66700 M⁻¹ s⁻¹
Ki (human A2BAR [1]): 9.08 nM
Ki (A2B adenosine receptor [2]): 486 nM
Ki (A2A adenosine receptor [7]): 20.8 ± 2.4 nM
Ki (A3 adenosine receptor): 140 ± 7 nM
Ki (A2B adenosine receptor [8]): 8 ± 2.2 nM
Ki (A1 adenosine receptor [3]): 8.85 nM
Ki (A2A adenosine receptor [4]): 207 nM

CCCn1c(=O)c2[nH]c(-c3ccc(OCC(=O)N[C@@H](C)c4ccccc4)cc3)nc2n(CCC)c1=O [Compound 25, (S)-2-(4-(2,6-dioxo-1,3-dipropyl-2,3,6,7-tetrahydro-1H-purin-8-yl)phenoxy)-N-(1-phenylethyl)acetamide]
Ki (A1 adenosine receptor [5]): 23.7 ± 4.9 nM
RT (human A2BAR [6]): 10 ± 2.3 min
Kd (human A2BAR [6]): 8.6 ± 3 nM
koff (human A2BAR [6]): 0.00162 s⁻¹
kon (human A2BAR [6]): 183000 M⁻¹ s⁻¹
Ki (human A2BAR [1]): 8.11 nM
Ki (A2B adenosine receptor [2]): 20.2 nM
Ki (A2A adenosine receptor [7]): 21 ± 1.8 nM
Ki (A3 adenosine receptor): 156 ± 15 nM
Ki (A2B adenosine receptor [8]): 8.2 ± 2.5 nM
Ki (A1 adenosine receptor [3]): 10.4 nM
Ki (A2A adenosine receptor [4]): 165 nM

CCCn1c(=O)c2[nH]c(-c3ccc(OCC(=O)NC4CC4)cc3)nc2n(CCC)c1=O [Compound 3, N-cyclopropyl-2-(4-(2,6-dioxo-1,3-dipropyl-2,3,6,7-tetrahydro-1H-purin-8-yl)phenoxy)acetamide]
RT (human A2BAR [6]): 0.9 min and 0.9 ± 0.0 min
koff (human A2BAR [6]): 0.0178 s⁻¹
kon (human A2BAR [6]): 600000 M⁻¹ s⁻¹
Ki (human A2BAR [1]): 36.3 nM
Ki (A2B adenosine receptor [2]): 36.6 ± 5.1 nM
Ki (A1 adenosine receptor [3]): 10.7 ± 1.75 nM
Ki (A2A adenosine receptor [4]): 51.7 ± 19.6 nM
